Each structure is given as a SMILES string. A value given as a limit tells only on which side of the number the result lay.

For the assay, the target named is STING (Homo sapiens, UniProt Q86WV6, G230A/H232R/R293Q/R71H). Nature of the assay: STING reporter assay: THP1-Dual KO-IFNAR2 cells stimulated with 2′3′cGAMP, luciferase reporter activity. Type of assay: cell-based. The conditions noted are these: 15 μM 2′3′cGAMP, 24h. In outline:
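THP1-Dual KO-IFNAR2 cells (2×10E6 cells/mL) treated with compounds at 0.0017-100 μM, then stimulated with 2′3′cGAMP (15 μM final) delivered by Lipofectamine 2000; 24 h at 37° C. Supernatant luciferase read by QUANTI-Luc Plus luminescence; EC50 from dose-response.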
A general note: In a reporter assay the amount or activity of a reporter protein is the signal.

Sequence of STING (Q86WV6 whole entry R71H/G230A/H232R/R293Q): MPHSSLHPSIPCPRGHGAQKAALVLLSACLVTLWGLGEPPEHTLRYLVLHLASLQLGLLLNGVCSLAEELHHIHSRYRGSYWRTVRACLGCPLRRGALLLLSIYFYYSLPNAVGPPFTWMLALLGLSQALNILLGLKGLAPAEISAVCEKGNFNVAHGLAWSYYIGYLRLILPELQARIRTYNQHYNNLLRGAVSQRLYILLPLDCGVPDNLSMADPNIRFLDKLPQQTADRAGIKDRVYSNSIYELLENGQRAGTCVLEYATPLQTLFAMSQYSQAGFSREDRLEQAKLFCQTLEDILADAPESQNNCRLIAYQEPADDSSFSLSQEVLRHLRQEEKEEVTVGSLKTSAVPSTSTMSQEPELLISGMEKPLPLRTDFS

What is called EC50 is the midpoint of the concentration-response curve. Turning to `O=C(Nc1ccc(C(F)(F)F)cc1)Nc1ccc2[nH]cc(NC(=O)Nc3ccc(C(F)(F)F)cc3)c2c1` [Compound 371], for the setting “class symbols”, the EC50 lay in the range of 0.2 to 1 µM.
In turn, `CCCCC1CCC(NC(=O)Nc2ccc3[nH]c(Cl)cc3c2)CC1` (centres unmarked) [Compound 372] showed an EC50 (numeric bounds) of over 100 µM.
Still for that read-out and setting: the value for `N#Cc1c[nH]c2ccc(NC(=O)Nc3ccc(C(F)(F)F)cc3)cc12` [Compound 373] was over 100 µM.
As to `O=C(Nc1cccc(C(F)(F)F)c1)Nc1ccc2[nH]ccc2c1` [Compound 374], the EC50 (class symbols) lay in the range of 5 to 100 µM.
With `CCCCC1CCC(NC(=O)Nc2ccc3[nH]c(C)cc3c2)CC1` (centres unmarked) [Compound 375], the EC50 (numeric bounds) was over 100 µM.
For the molecule `CN(C(=O)Nc1ccc(C(F)(F)F)cc1)c1ccc2[nH]ccc2c1` [Compound 376], the EC50 (class symbols) lay within 5 to 100 µM.
For `Cn1ccc2cc(NC(=O)Nc3ccc(C(F)(F)F)cc3)ccc21` [Compound 377], the EC50 (numeric bounds) was over 100 µM.
`CCCCc1ccc(NC(=O)Nc2ccc3[nH]ccc3c2)cc1` [Compound 378] gave a 50% effective concentration (EC50) (class symbols) of 1 to 5 µM.
Take `CCCCC1CCC(NC(=O)Nc2ccc3[nH]ccc3c2)CC1` (centres unmarked) [Compound 379]: the EC50 (numeric bounds) was over 5 µM.
As for `FC(F)(F)c1ccc2ccc(Nc3ccc4cc[nH]c4c3)nc2c1` [Compound 381], the EC50 (class symbols) lay within 0.2 to 1 µM.
For `N#Cc1cc(Nc2ccc3ccc(C(F)(F)F)cc3n2)cc2[nH]ccc12` [Compound 384], the EC50 (class symbols) was in the range of 1 to 5 µM.
On to `CCc1ccc2ccc(Nc3ccc4cc[nH]c4c3)nc2c1` [Compound 385], for which the EC50 (class symbols) lay in the range of 1 to 5 µM.
Turning to `c1cc2ccc(Nc3ccc4ccc(C5CCC5)cc4n3)cc2[nH]1` [Compound 386], the EC50 (class symbols) fell in the range of 1 to 5 µM.
Still for that read-out and setting: the value for `Cc1cc(Nc2ccc3ccc(Cl)cc3n2)cc2[nH]ccc12` [Compound 387] was 1 to 5 µM.
For `FC(F)(F)c1ccc2cnc(Nc3ccc4cc[nH]c4c3)cc2c1` [Compound 388], the EC50 (class symbols) was 1 to 5 µM.
Molecule `c1cc2ccc(Nc3ccc4ccc(C5CCCCC5)cc4n3)cc2[nH]1` [Compound 389, 7-cyclohexyl-N-(1H-indol-6-yl)quinolin-2-amine] registered an EC50 (class symbols) of 1 to 5 µM.
In turn, `COc1nc(Nc2ccc3cc[nH]c3c2)ccc1F` [Compound 391, N-(5-fluoro-6-methoxypyridin-2-yl)-1H-indol-6-amine] registered an EC50 (class symbols) of 5 to 100 µM.
`CCc1ccnc(Nc2ccc3cc[nH]c3c2)c1` [Compound 392, N-(4-ethylpyridin-2-yl)-1H-indol-6-amine] registered a half-maximal effective concentration (EC50) (numeric bounds) of over 30 µM.
Take `CC(C)c1ccnc(Nc2ccc3cc[nH]c3c2)c1` [Compound 393, N-(4-isopropylpyridin-2-yl)-1H-indol-6-amine]: the EC50 (numeric bounds) is over 30 µM.
The molecule `c1cnc(Nc2ccc3cc[nH]c3c2)c(C2CC2)c1` [Compound 394, N-(3-cyclopropylpyridin-2-yl)-1H-indol-6-amine] came in with an EC50 (numeric bounds) of over 30 µM.
Same read-out and setting: the value for `CC(O)c1ccnc(Nc2ccc3cc[nH]c3c2)c1` (centres unmarked) [Compound 395, 1-(2-((1H-indol-6-yl)amino)pyridin-4-yl)ethanol] was over 30 µM.
As to `FC(F)(F)COc1cccc(Nc2ccc3cc[nH]c3c2)n1` [Compound 396, N-(6-(2,2,2-trifluoroethoxy)pyridin-2-yl)-1H-indol-6-amine], the concentration for a half-maximal effect (EC50) (class symbols) was 5 to 100 µM.
`c1cc(Nc2ccc3cc[nH]c3c2)nc(N2CCCC2)c1` [Compound 397, N-(6-(pyrrolidin-1-yl)pyridin-2-yl)-1H-indol-6-amine] returned an EC50 (numeric bounds) of over 30 µM.
`CCNc1cccc(Nc2ccc3cc[nH]c3c2)n1` [Compound 398, N2-ethyl-N6-(1H-indol-6-yl)pyridine-2,6-diamine] registered a concentration giving a half-maximal response (EC50) (numeric bounds) of over 30 µM.
Same read-out and setting: then `Cc1nc(Nc2ccc3cc[nH]c3c2)ccc1Br` [Compound 399, N-(5-bromo-6-methylpyridin-2-yl)-1H-indol-6-amine], with over 30 µM.
As to `OCc1cccnc1Nc1ccc2cc[nH]c2c1` [Compound 400, (2-((1H-indol-6-yl)amino)pyridin-3-yl)methanol], for the setting “numeric bounds”, the 50% effective concentration (EC50) is over 30 µM.
For the molecule `c1ccc(-c2ccnc(Nc3ccc4cc[nH]c4c3)c2)cc1` [Compound 401, N-(4-phenylpyridin-2-yl)-1H-indol-6-amine], the concentration giving a half-maximal response (EC50) (class symbols) lay in the range of 1 to 5 µM.
The same measure, in the same setting: the value for `CC(C)(C)c1ccnc(Nc2ccc3cc[nH]c3c2)c1` [Compound 402, N-(4-(tert-butyl)pyridin-2-yl)-1H-indol-6-amine] was 5 to 100 µM; that for `FC(F)(F)Oc1ccc(Nc2ccc3cc[nH]c3c2)nc1` [Compound 403, N-(5-(trifluoromethoxy)pyridin-2-yl)-1H-indol-6-amine] was 5 to 100 µM.
Regarding `c1cc2nccnc2c(Nc2ccc3cc[nH]c3c2)n1` [Compound 404, N-(1H-indol-6-yl)pyrido[3,4-b]pyrazin-5-amine], the 50% effective concentration (EC50) (numeric bounds) is over 30 µM.
Molecule `FC(F)(F)c1nc(Nc2ccc3cc[nH]c3c2)ccc1Cl` [Compound 405, N-(5-chloro-6-(trifluoromethyl)pyridin-2-yl)-1H-indol-6-amine] registered an EC50 (class symbols) of 0.2 to 1 µM.
Still for that read-out and setting: then `CC(C)c1cccc(Nc2ccc3cc[nH]c3c2)n1` [Compound 406, N-(6-isopropylpyridin-2-yl)-1H-indol-6-amine], with 5 to 100 µM.
The molecule `c1cnc2c(Nc3ccc4cc[nH]c4c3)nccc2c1` [Compound 407, N-(1H-indol-6-yl)-1,7-naphthyridin-8-amine] had a concentration giving a half-maximal response (EC50) (numeric bounds) of over 30 µM.
The molecule `FC(F)(F)Cc1ccc(Nc2ccc3cc[nH]c3c2)nc1` [Compound 408, N-(5-(2,2,2-trifluoroethyl)pyridin-2-yl)-1H-indol-6-amine] returned an EC50 (class symbols) of 5 to 100 µM.
`FC(F)(F)Oc1cccc(Nc2ccc3cc[nH]c3c2)n1` [Compound 409, N-(6-(trifluoromethoxy)pyridin-2-yl)-1H-indol-6-amine] came in with an EC50 (numeric bounds) of over 30 µM.
`FC(F)(F)COc1ccnc(Nc2ccc3cc[nH]c3c2)n1` [Compound 410, N-(4-(2,2,2-trifluoroethoxy)pyrimidin-2-yl)-1H-indol-6-amine]: where the note is “numeric bounds”, the EC50 was over 30 µM.
Still for that read-out and setting: then `c1cc2ccc(Nc3ccc(C4CC4)cn3)cc2[nH]1` [Compound 411, N-(5-cyclopropylpyridin-2-yl)-1H-indol-6-amine], with over 30 µM.
In the case of `CCOCc1ccc(Nc2ccc3cc[nH]c3c2)nc1` [Compound 412, N-(5-(ethoxymethyl)pyridin-2-yl)-1H-indol-6-amine], for the setting “class symbols”, the concentration giving a half-maximal response (EC50) was in the range of 5 to 100 µM.
Under “numeric bounds”, `FC(F)Oc1ccc(Nc2ccc3cc[nH]c3c2)nc1` [Compound 413, N-(5-(difluoromethoxy)pyridin-2-yl)-1H-indol-6-amine] gave an EC50 of over 30 µM.
`CN1CCC(COc2cnc(Nc3ccc4cc[nH]c4c3)nc2)CC1` [Compound 414, N-(5-((1-methylpiperidin-4-yl)methoxy)pyrimidin-2-yl)-1H-indol-6-amine] showed an EC50 (numeric bounds) of over 30 µM.
With `c1cc2ccnc(Nc3ccc4cc[nH]c4c3)c2cn1` [Compound 415, N-(1H-indol-6-yl)-2,7-naphthyridin-1-amine], the EC50 (numeric bounds) was over 30 µM.
Same read-out and setting: the value for `CC(F)(F)c1ccnc(Nc2ccc3cc[nH]c3c2)c1` [Compound 416, N-(4-(1,1-difluoroethyl)pyridin-2-yl)-1H-indol-6-amine] was over 30 µM.
Regarding `CC(C)(C)OC(=O)N1Cc2cnc(Nc3ccc4cc[nH]c4c3)nc2C1` [Compound 418, tert-butyl 2-((1H-indol-6-yl)amino)-5H-pyrrolo[3,4-d]pyrimidine-6(7H)-carboxylate], the concentration giving a half-maximal response (EC50) (class symbols) was in the range of 5 to 100 µM.
`CC(C)(C)OC(=O)N1CCc2nc(Nc3ccc4cc[nH]c4c3)ncc2C1` [Compound 419, tert-butyl 2-((1H-indol-6-yl)amino)-7,8-dihydropyrido[4,3-d]pyrimidine-6(5H)-carboxylate] returned a concentration giving a half-maximal response (EC50) (numeric bounds) of over 30 µM.
For the setting “class symbols”, `CC(C)(C)c1cccc(Nc2ccc3cc[nH]c3c2)n1` [Compound 420, N-(6-(tert-butyl)pyridin-2-yl)-1H-indol-6-amine] showed a concentration giving a half-maximal response (EC50) of 1 to 5 µM.
Molecule `Cc1ccc(Nc2ccc3cc[nH]c3c2)nc1C(F)(F)F` [Compound 421, N-(5-methyl-6-(trifluoromethyl)pyridin-2-yl)-1H-indol-6-amine] displayed a concentration for a half-maximal effect (EC50) (class symbols) of 1 to 5 µM.
For the molecule `O=S(=O)(c1ccc(Nc2ccc3cc[nH]c3c2)nc1)N1CCCCC1` [Compound 422, N-(5-(piperidin-1-ylsulfonyl)pyridin-2-yl)-1H-indol-6-amine], the EC50 (class symbols) fell in the range of 5 to 100 µM.
As to `O=S(=O)(c1ccc(Nc2ccc3cc[nH]c3c2)nc1)N1CCCC1` [Compound 423, N-(5-(pyrrolidin-1-ylsulfonyl)pyridin-2-yl)-1H-indol-6-amine], under “numeric bounds”, the 50% effective concentration (EC50) was over 30 µM.
Molecule `c1ccc(-c2ccc(Nc3ccc4cc[nH]c4c3)nc2)cc1` [Compound 424, N-(5-phenylpyridin-2-yl)-1H-indol-6-amine] came in with an EC50 (class symbols) of 1 to 5 µM.
`Clc1ccc2ccc(Nc3ccc4cc[nH]c4c3)nc2c1Cl` [Compound 425, 7,8-dichloro-N-(1H-indol-6-yl)quinolin-2-amine] had a concentration for a half-maximal effect (EC50) (numeric bounds) of over 30 µM.
As for `CC(C)(C)c1ccc(Nc2ccc3cc[nH]c3c2)nc1` [Compound 426, N-(5-(tert-butyl)pyridin-2-yl)-1H-indol-6-amine], the half-maximal effective concentration (EC50) (class symbols) is 5 to 100 µM.
For the setting “numeric bounds”, `c1ccc(-c2cccc(Nc3ccc4cc[nH]c4c3)n2)cc1` [Compound 427, N-(6-phenylpyridin-2-yl)-1H-indol-6-amine] returned a 50% effective concentration (EC50) of over 20.4 µM.
Take `CC(C)(C)OC(=O)N1CCc2cnc(Nc3ccc4cc[nH]c4c3)nc2C1` [Compound 428, tert-butyl 2-((1H-indol-6-yl)amino)-5,6-dihydropyrido[3,4-d]pyrimidine-7(8H)-carboxylate]: the EC50 (class symbols) lay within 5 to 100 µM.
`CC(C)(C)OC(=O)N1CCC(c2ccnc(Nc3ccc4cc[nH]c4c3)n2)CC1` [Compound 429, tert-butyl4-(2-((1H-indol-6-yl)amino)pyrimidin-4-yl)piperidine-1-carboxylate]: where the note is “class symbols”, the EC50 fell in the range of 5 to 100 µM.
The molecule `CC(N)c1ccnc(Nc2ccc3cc[nH]c3c2)c1` (centres unmarked) [Compound 430, N-(4-(1-aminoethyl)pyridin-2-yl)-1H-indol-6-amine] gave an EC50 (numeric bounds) of over 30 µM.
In the case of `c1cc2c(c(Nc3ccc4cc[nH]c4c3)n1)CCCC2` [Compound 431, N-(1H-indol-6-yl)-5,6,7,8-tetrahydroisoquinolin-1-amine], the half-maximal effective concentration (EC50) (class symbols) fell in the range of 5 to 100 µM.

The values are drawn from patent US20230092163A1, “COMPOUNDS AND COMPOSITIONS FOR TREATING CONDITIONS ASSOCIATED WITH STING ACTIVITY” (IFM Due, Inc., priority 2019, published 2023).
